{
  "source": "patent US7354574B2",
  "about": "“Treatment of ocular disease” (Advanced Ocular Systems Limited, priority 2002, dated 2008)",
  "origin": "cited, not measured here",
  "details": "administered systemically",
  "data": [
    {"smiles": "C=CC[C@@H]1/C=C(\\C)C[C@H](C)C[C@H](OC)[C@H]2O[C@@](O)(C(=O)C(=O)N3CCCC[C@H]3C(=O)O[C@H](/C(C)=C/[C@@H]3CC[C@@H](O)[C@H](OC)C3)[C@H](C)[C@@H](O)CC1=O)[C@H](C)C[C@@H]2OC", "note": "[tacrolimus]", "values": [
      {"measurement": "Renal and hepatic toxicity", "result": "significant renal and hepatic toxicity"}
    ]}
  ]
}
